Converted amounts (≈) assume the structure as drawn. “And” between values parts separate entries of the source, which are not always exact repeats. Equal entries are not always repeated.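 Growth conditions: 96-well plates. Treatment: test compound, 48 hours, 5 concentrations. Analysis: linear interpolation between bracketing concentrations; unreached endpoints set to highest concentration. Here, GI50 denotes the concentration required for 50% inhibition of growth. TGI denotes the concentration required for complete inhibition of growth.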
How the values were obtained:
Test in all cases: DTP human tumour cell line panel, 48 h
SF-539 CNS = system: SF-539 CNS
RXF 393 renal = system: RXF 393 renal
HCT-15 colon = system: HCT-15 colon
DMS 114 small cell lung = system: DMS 114 small cell lung
IGROV1 ovarian = system: IGROV1 ovarian
SK-MEL-5 melanoma = system: SK-MEL-5 melanoma
HCT-116 colon = system: HCT-116 colon
KM12 colon = system: KM12 colon
A498 renal = system: A498 renal
HCC-2998 colon = system: HCC-2998 colon

SMILES	TGI (SF-539 CNS)	TGI (RXF 393 renal)	TGI (HCT-15 colon)	TGI (DMS 114 small cell lung)	TGI (IGROV1 ovarian)	TGI (SK-MEL-5 melanoma)	TGI (HCT-116 colon)	TGI (KM12 colon)	TGI (A498 renal)	GI50 (HCC-2998 colon)	TGI (HCC-2998 colon)	GI50 (SF-539 CNS)	GI50 (RXF 393 renal)	GI50 (KM12 colon)	GI50 (HCT-15 colon)	GI50 (A498 renal)	GI50 (DMS 114 small cell lung)	GI50 (IGROV1 ovarian)	GI50 (SK-MEL-5 melanoma)	GI50 (HCT-116 colon)
CCOC(=O)NC(=O)c1cn(CCSCCOC(=O)NCCCCCCNC(=O)OCCSCCn2cc(C(=O)NC(=O)OCC)c(=O)[nH]c2=O)c(=O)[nH]c1=O	> 100 µM	> 100 µM	> 100 µM	> 100 µM	> 100 µM	> 100 µM	> 100 µM													
COc1cc2c(cc1OC)C(Cc1c3ccccc3cc3ccccc13)N(C)CC2 (stereo not given)	47.1 µM	32.5 µM	> 87.6 µM		65.4 µM	35.3 µM	40.3 µM	35.9 µM	43.6 µM											
NC(N)=Nc1nc2ccccc2[nH]1	> 150 µg/mL	> 150 µg/mL	> 150 µg/mL	68 µg/mL	> 150 µg/mL	99 µg/mL	> 150 µg/mL	> 150 µg/mL	> 150 µg/mL	34.1 µg/mL	> 150 µg/mL	33.7 µg/mL (≈ 192 µM)	72.5 µg/mL	53.1 µg/mL (≈ 303 µM)	80.9 µg/mL	45.8 µg/mL	10.5 µg/mL	23.7 µg/mL	31.1 µg/mL	49.3 µg/mL
Cc1cc(N=Nc2ccc(N=Nc3c(O)c(S(=O)(=O)O)cc4cc(S(=O)(=O)O)ccc34)cc2C)ccc1N=Nc1ccc2cc(S(=O)(=O)O)cc(S(=O)(=O)O)c2c1	> 100 µM	> 100 µM	> 100 µM	> 100 µM	> 100 µM	> 100 µM	> 100 µM	> 100 µM	> 100 µM		> 100 µM									
CC1=C2C(O)C(C(C)C(=O)NC(C)C)CCC2(C)C=CC1=O (stereo not given)	> 100 µM	> 100 µM	> 100 µM	> 100 µM	> 100 µM	> 100 µM	> 100 µM	> 100 µM	> 100 µM		> 100 µM									
CCNCCCCNCC	> 3750 µM	> 3750 µM	> 3750 µM	> 3750 µM	> 3750 µM	> 3750 µM	> 3750 µM	> 3750 µM	> 3750 µM		> 3750 µM									
COC(=O)NN1C(=O)C(=P(c2ccccc2)(c2ccccc2)c2ccccc2)C(C(=O)OC)=C1C	> 100 µM		> 100 µM	> 100 µM	> 100 µM	> 100 µM			> 100 µM											
COc1cc([C@@H]2c3cc4c(c(O)c3C[C@H]3COC(=O)[C@@H]32)OCO4)cc(OC)c1O			> 9.28 µM	0.00546 µM	> 128 µM	0.00624 µM and < 0.02 µM	> 20 µM	> 200 µM	0.0046 µM and < 0.02 µM	0.0283 µM	2 µM		0.00215 µM		0.00348 µM and 0.0265 µM	0.00144 µM	0.00231 µM	0.00276 µM	0.00221 µM	0.0039 µM
Cn1c(=O)c2nc(N3CCCCC3)cnc2n(C)c1=O	> 100 µM		> 100 µM		> 100 µM	> 100 µM	> 100 µM	> 100 µM	> 100 µM		> 100 µM									
O=C(O)CNS(=O)(=O)c1ccc(NC(=O)Nc2ccccc2)cc1	> 100 µM	> 100 µM	> 100 µM	> 100 µM	> 54.4 µM	> 100 µM	> 100 µM	> 100 µM	> 100 µM		> 100 µM									

Reference: PubChem BioAssay (NCI)
